Test results taken from patent publication US20230024584A1, “ANTI-CANCER COMPOSITIONS AND METHODS” (University of Kentucky Research Foundation, priority 2019, published 2023).

Legend:
Assay type in all cases: cell-based
PC9GR4 and A549 cells = assay: Apoptosis (7-AAD/APC-annexin V flow cytometry), lung cancer cells; settings: 1.25, 2.5 or 5 μM, 48 h
Description: With reference to FIGS. 29A and 29B, studies were also conducted to determine the effect of lomitapide treatment on apoptosis of lung cancer cells. Initially, 0.1-0.3 million PC9GR4 or A549 cells were seeded into 6 cm cell culture dishes and cultured overnight. Vehicle control (DMSO) or lomitapide (final concentration: 1.25, 2.5 or 5 μM) was added then into corresponding dishes. After 48 h incubation, the cells were harvested, stained by 7-AAD/APC-annixin V and analyzed by flow cytometry. The results are presented as mean±standard deviation (n=3). * p<0.05, compared to vehicle control (negative control) treatment group.

[1] = system: SUM159, MCF-7 and MDA-MB-453 cells; assay: Soft agar colony formation assay, breast cancer cell lines; settings: 1.25, 2.5 or 5 μM, 1 month culture
Description: With reference to FIGS. 23A-23D, soft agar colony formation assays were also performed. Initially, 1000 SUM159 or MCF-7 cells, 10000 MDA-MB-453 cells were seeded into the upper agar of each dish; meanwhile, vehicle control (DMSO) or lomitapide (final concentration: 1.25, 2.5 or 5 μM) were added into the upper agar of corresponding dishes. After 1 month continuous culture, the final colonies formed in the agar were fixed by methanol and stained with crystal violet. FIG. 23A includes representative soft agar images from each treatment groups. FIGS. 23B-23D include the quantitation of soft agar clone numbers (mean standard deviation, n=3). * p<0.05, compared to vehicle control (negative control) treatment group.

[2] = system: HCT116, HT29, DLD1, PT130 and SW480 cells; assay: MTT assay, colon cancer cell lines; settings: 1.25, 2.5 and 5 μM; 24, 48, 72 h
Description: With reference to FIGS. 31A-31F, studies were conducted to determine the effect of lomitapide treatment on colon cancer cell growth as determined by the MTT assay. Initially, 1000 HCT116, HT29, DLD1, PT130, or SW480 cells were seeded into 96-well plates. After overnight culture, vehicle (DMSO) or lomitapide (final concentration: 1.25, 2.5 and 5 μM) were added into the corresponding wells. After 24 h, 48 h and 72 h incubation, the culture media were aspirated off and 50 μL of 0.5 mg/mL of MTT containing medium was added into each well. After 3h incubation, 200 μL of DMSO were added into each well. The OD value of each well was read under the wavelength of 570 nm. The results are presented as mean±standard deviation (n=6) * p<0.05, compared to vehicle control (negative control) treatment group.

[3] = system: H1975, PC9, PC9GR4 and H460 cells; assay: Clonogenic assay, lung cancer cell lines; settings: 1.25, 2.5 or 5 μM for 72 h, then 10 days culture
Description: Clonogenic assays were also performed to determine the effect of lomitapide treatment on various lung cancer cell lines, with data reflected in FIGS. 28A-28E. Initially, 100 H1975, PC9, PC9GR4, or H460 cells were seeded into 6-cm cell culture dishes. After overnight culture, vehicle control (DMSO) or lomitapide (final concentration: 1.25, 2.5 or 5 μM) were added into the corresponding dishes. After 72 h culture, the DMSO- or lomitapide-containing media were removed and the fresh culture media were added in followed by additional 10 days culture. The culture media were replaced with fresh media every three days. At the end of cell culture, the final clones in dishes were fixed by 4% paraformaldehyde and stained with crystal violet. FIG. 28A includes representative images from each treatment groups. FIGS. 28B-28E include quantitation of clone numbers (mean±standard deviation, n=3). * p<0.05, compared to vehicle control (negative control) treatment group.

[4] = system: SUM19, MCF-7, MDA-MB-453 and 4T1luc cells; assay: Suspension culture sphere formation assay, breast cancer cells; settings: 1.25, 2.5 or 5 μM, 10 days
Description: With reference to FIGS. 24A and 24B, the effect of lomitapide treatment on cancer stem cell-like property of breast cancer cells was further studied. Initially, 2500 breast cancer SUM19, MCF-7, MDA-MB-453 or 4T1^luc cells were seeded into […] 24-well plates; meanwhile, vehicle control (DMSO) or lomitapide (final concentration: 1.25, 2.5 or 5 μM) were added into corresponding wells. After 10-days continuous culture, the final spheres formed were imaged and counted under an inverted phase-contrast microscope. FIG. 24A includes representative sphere images from each treatment groups. FIG. 24B includes the quantitation of sphere numbers (mean±standard deviation, n=3). * p<0.05, compared to vehicle control (negative control) treatment group.

[5] = system: SUM159, LM2, MCF-7, 4T1, 4T1luc and MDA-MB-453 cells; assay: Clonogenic assay, breast cancer cell lines; settings: 1.25, 2.5 or 5 μM for 72 h, then 10 days culture
Description: Clonogenic assays were also performed to determine the effect of lomitapide treatment on various breast cancer cell lines, with data reflected in FIGS. 22A-22G. Initially, 100 SUM159, LM2, MCF-7, 4T1 or 4T1^luc cells, or 1000 MDA-MB-453 cells were seeded into 6-cm cell culture dishes. After overnight culture, vehicle control (DMSO) or lomitapide (final concentration: 1.25, 2.5 or 5 μM) were added into the corresponding dishes. After 72 h culture, the DMSO- or lomitapide-containing media were removed and the fresh culture media were added in followed by additional 10 days culture. The culture media were replaced with fresh media every three days. At the end of cell culture, the final clones in dishes were fixed by 4% paraformaldehyde and stained with crystal violet. FIG. 22A includes representative images from each treatment groups, and FIGS. 22B-22G include the quantitation of clone numbers (mean standard deviation, n=3). * p<0.05, compared to vehicle control (negative control) treatment group.

[6] = system: PC9, H1975, PC9GR4, H460 and A549 cells; assay: MTT assay, lung cancer cell lines; settings: 1.25, 2.5 and 5 μM; 24, 48, 72 h
Description: FIGS. 27A-27E include the results of studies to determine the effect of lomitapide treatment on lung cancer cell growth of various cell lines as determined by MTT assay. Initially, 1000 PC9, H1975, PC9GR4, H460, or A549 cells were seeded into 96-well plates. After overnight culture, vehicle (DMSO) or lomitapide (final concentration: 1.25, 2.5 and 5 μM) were added into the corresponding wells. After 24 h, 48 h and 72 h incubation, the culture media were aspirated off and 50 μL of 0.5 mg/mL of MTT containing medium was added into each well. After 3h incubation, 200 μl of DMSO were added into each well. The OD value of each well was read under the wavelength of 570 nm. The results are presented as mean±standard deviation (n=6) * p<0.05, compared to vehicle control (negative control) treatment group.

lomitapide
apoptosis (PC9GR4 and A549 cells): induces apoptosis | breast cancer cell growth (soft agar clone numbers) [1]: significantly reduces breast cancer cell growth | colon cancer cell growth (MTT) [2]: significantly reduces colon cancer cell growth | lung cancer cell growth (clone numbers) [3]: significantly reduces lung cancer cell growth | cancer stem cell-like property (sphere numbers) [4]: significantly reduces cancer stem cell-like property | breast cancer cell growth (clone numbers) [5]: significantly reduces breast cancer cell growth | lung cancer cell growth (MTT) [6]: significantly reduces lung cancer cell growth
